Assay results as given in PMC10508484, “Development and application of a PBPK modeling strategy to support antimalarial drug development” (CPT: Pharmacometrics & Systems Pharmacology, 2023).
“And” between values parts separate entries of the source, which are not always exact repeats. Equal values may be shown once. Read-outs that look alike come from different tables or passages of the source.

Assays:
[1] = cited from earlier work; for CL renal: PBPK input, ref amodiaquine, DEAQ Winstanley et al., atovaquone Rolan et al., 1997 14, azithromycin Lalak et al., 1993 23, carboxyprimaquine Mihaly et al., 1987 29, DHA EMA Website, 44, mefloquine Schwartz et al., 1982 57, primaquine White, 1985 62, pyrimeth
[2] = cited from earlier work
[3] = In vitro flags for victim and perpetrator properties conferring DDI liability; type: in vitro ADME, human; conditions: in vitro flag, mainly based on in vitro determinations
[4] = cited from earlier work; for Log D pH 7.4: lumefantrine: ACD labs value, ref Charman et al., 2020 1
[5] = PBPK input, cited from earlier work
[6] = PBPK simulation of drug-drug interactions (Simcyp V19); design: species or system human; conditions: ratio of simulated to clinically observed AUC ratio; DDI of the respective line of Table S3
Description: Here, we provide three example applications where the available PBPK models were used to address questions relating to DDI assessment. […] Additional simulation methods are provided in Appendix S1.
All simulations, including the ones performed for the applications, were run using Version 19 of the Simcyp population-based PBPK simulator (Simcyp (Certara), Sheffield, UK) and unless stated otherwise, input parameters for all drugs are as specified (Supplementary Information Table S1). All simulations were run using ten virtual trials that were matched as closely as possible to the clinical study volunteers in terms of the number of subjects, their age, the proportion of males/females and according to the same study design.

[7] = cited from earlier work; remark: listed apart in the source
[8] = system: Caco-2 cells; conditions: cited from earlier work
[9] = ref Charman et al., 2020 1; cited from earlier work
[10] = Hepatic / HLM intrinsic clearance, enzyme not defined; conditions: human
[11] = 1987 9, 1985 26, chloroquine Walker et al., doxycycline Raghuram et al., 1982 48, Nguyen et al., 1989 49, proguanil Jeppesen et al., 1997 34
[12] = midazolam 7.5 mg QD + piperaquine 960 mg QD, ref Eurartesim - EMA Website, 12
[13] = midazolam 15 mg SD (Day 3) + azithromycin 500 mg QD (3 Days), ref Yeates et al., 1996 6
[14] = midazolam 15 mg SD (Day 3) + azithromycin 500 mg QD (3 Days), ref Zimmermann et al., 1996 7
[15] = midazolam 15 mg SD (Day 5) + azithromycin 500 mg QD (Day 1), 250 mg (Days 2-5), ref Backman et al., 1995 5

SMILES: CC[C@H]1OC(=O)[C@H](C)[C@@H](O[C@H]2C[C@@](C)(OC)[C@@H](O)[C@H](C)O2)[C@H](C)[C@@H](O[C@@H]2O[C@H](C)C[C@H](N(C)C)[C@H]2O)[C@](C)(O)C[C@@H](C)CN(C)[C@H](C)[C@@H](O)[C@]1(C)O [Azithromycin, azithromycin]
- CL renal [1, 11]: 8.67 L/h
- AUC Obs ([2]; in vivo, 500 mg): 1.77 µg·h/mL
- Cmax Obs ([2]; in vivo, 500 mg): 410 ng/mL
- Risk as a perpetrator [3]: CYP3A4 time‐dependent inhibitor
- Risk as a victim [3]: Cleared by biliary excretion
- Log P ([4]; ref PubChem/DrugBank): 4.02
- fu ([5]; ref atovaquone Mepron Prescribing Information, 2008, Nixon et al., 2013 13, Rolan et al., 1997 14, azithromycin Foulds et al., 1990 20, chloroquine Ofori-Adjei et al., 1986 27, Walker et al., 1983 28, DHA Batty et al., 2004 41 (healthy volunteers), lumefantrine CDER submission 22-269, proguanil Wattanagoon et al., 1987 63, tafenoquine Dow et al., 2020 84): 0.69

SMILES: COc1cc(NC(C)CCC(=O)O)c2ncccc2c1 (stereo not shown) [Carboxyprimaquine, carboxyprimaquine]
- AUC Obs ([2]; 15 mg QD (Day 14), 0-inf, ref Ward et al., 1985 14): 24.7 µg·h/mL
- Cmax Obs ([2]; 15 mg QD (Day 14), ref Ward et al., 1985 14): 1240 ng/mL
- AUC Obs ([2]; 15 mg SD, 0-24 h, ref Mihaly et al., 1985 12): 15.1 µg·h/mL
- AUC Obs ([2]; 15 mg SD, 0-inf, ref Ward et al., 1985 14): 14.2 µg·h/mL
- Cmax Obs ([2]; 15 mg SD, ref Ward et al., 1985 14): 736 ng/mL
- AUC Obs ([2]; 30 mg SD, 0-inf, ref Hanboonkunupakarn et al., 2014 13): 44 µg·h/mL
- AUC Obs ([2]; 30 mg SD, 0-inf, ref Jittamala et al., 2015 15): 47.2 µg·h/mL
- Cmax Obs ([2]; 30 mg SD, ref Hanboonkunupakarn et al., 2014 13): 959 ng/mL
- Cmax Obs ([2]; 30 mg SD, ref Jittamala et al., 2015 15): 1040 ng/mL
- AUC Obs ([2]; 45 mg SD, 0-24 h, ref Mihaly et al., 1985 12): 39.9 µg·h/mL

SMILES: C[C@H]1c2cccc(O)c2C(=O)C2=C(O)[C@]3(O)C(=O)C(C(N)=O)=C(O)[C@@H](N(C)C)[C@@H]3[C@@H](O)[C@@H]21 [Doxycycline, doxycycline]
- CL renal [1, 11]: 0.87 L/h
- CL IV ([1]; clinically observed, ref atovaquone Lavelle et al., 1994 17, chloroquine Walker et al., 1987 29, Gustafsson et al., 1983 30, doxycycline Raghuram et al., 1982 48, Nguyen et al., 1989 49, primaquine Mihaly et al., 1985 26, quinine White et al., 1983 77, Paintaud et al., 1993 78): 2.77 L/h
- AUC Obs ([2]; 100 mg SD, 0-inf, first line, ref Malmborg, 1984 25): 40.1 µg·h/mL
- AUC Obs ([2]; 100 mg SD, 0-inf, ref Grahnen et al., 1994 24): 29.9 µg·h/mL
- AUC Obs ([2]; 100 mg SD, 0-inf, second line, ref Malmborg, 1984 25): 37.4 µg·h/mL
- Cmax Obs ([2]; 100 mg SD, ref Grahnen et al., 1994 24): 1750 ng/mL
- AUC Obs ([2]; 100 mg q24h, 312-408 h, ref Binh et al., 2009 28): 37.3 µg·h/mL
- Cmax Obs ([2]; 100 mg q24h, ref Binh et al., 2009 28): 3260 ng/mL
- AUC Obs ([2]; 200 mg SD, 0-inf, ref Wojcicki et al., 1985 26): 40.9 µg·h/mL
- Cmax Obs ([2]; 200 mg SD, ref Wojcicki et al., 1985 26): 2610 ng/mL
- AUC Obs ([2]; 200 mg q24h, malaria-infected, 0-24 h, ref Newton et al., 2005 27): 32.0 µg·h/mL
- AUC Obs ([2]; 200 mg q24h, malaria-infected, 144-168 h, ref Newton et al., 2005 27): 48.6 µg·h/mL
- Cmax Obs ([2]; 200 mg q24h, malaria-infected, window 0-24 h, ref Newton et al., 2005 27): 3170 ng/mL
- Cmax Obs ([2]; 200 mg q24h, malaria-infected, window 144-168 h, ref Newton et al., 2005 27): 4440 ng/mL
- Risk as a perpetrator [3]: None identified
- Risk as a victim [3]: Cleared by renal and biliary excretion
- Log D pH 7.4 [4]: -0.2
- fu ([5]; ref Charman et al., 2020 1): 0.23

SMILES: Cc1ncc2n1-c1ccc(Cl)cc1C(c1ccccc1F)=NC2 [Midazolam, midazolam]
- AUC ratios Sim/Obs [6]: 0.91 and 0.83 and 1.22
- AUC ratio Obs [7, 12]: ≤ 2 fold
- Cmax ratio Obs [7, 12]: ≤ 2 fold
- AUC ratio Obs [7, 13]: 1.19
- Cmax ratio Obs [7, 13]: 1.52
- AUC ratio Obs [7, 14]: 1.27
- Cmax ratio Obs [7, 14]: 1.29
- AUC ratio Obs [7, 15]: 0.87
- Cmax ratio Obs [7, 15]: 0.66

SMILES: CC(C)NCC(O)COc1cccc2ccccc12 (stereo not shown) [Propranolol, propranolol]
- Papp A-B of calibrator ([8]; Caco-2): 72 10-6 cm/s

SMILES: C=C[C@H]1C[N@@]2CC[C@H]1C[C@H]2[C@H](O)c1ccnc2ccc(OC)cc12 [Quinine, quinine]
- B:P [9]: 0.67
- AUC Obs ([2]; in vivo, 550 mg): 50.89 µg·h/mL
- Cmax Obs ([2]; in vivo, 550 mg): 2848 ng/mL
- Risk as a perpetrator [3]: CYP2D6 inhibitor
- Risk as a victim [3]: Substrate of CYP3A4

SMILES: COc1ncnc(NS(=O)(=O)c2ccc(N)cc2)c1OC [Sulfadoxine, sulfadoxine]
- CL renal [1, 11]: 0.035 L/h
- CL PO ([1]; clinically observed oral (in vivo) clearance, pyronaridine: blood, ref amodiaquine Winstanley et al., 1987 9, DEAQ Akande et al., 2015 8, Scarsi et al., 2014 35, Tarning et al., 2012 36, Orrell et al., 2008 37, DHA Na-Bangchang et al., 2004 42, lumefantrine Lefevre et al., 2002 52, Hoglund et al., 2015 53, mefloquine Charles et al., 2007 56, proguanil Jeppesen et al., 1997 34, pyronaridine Jittama): 0.039 L/h
- fe (fraction excreted unchanged in urine) ([1]; in vivo): 90%
- fm additional / undefined metabolism [10]: 10%
- AUC Obs ([2]; 500 mg SD, Caucasian, 0-inf, ref Weidekamm et al., 1982 35): 14168 µg·h/mL
- Cmax Obs ([2]; 500 mg SD, Caucasian, ref Weidekamm et al., 1982 35): 63200 ng/mL
- AUC Obs ([2]; 500 mg SD, South-East Asian, 0-inf, ref Sarikabhuti et al., 1988 44): 26689 µg·h/mL
- Cmax Obs ([2]; 500 mg SD, South-East Asian, ref Sarikabhuti et al., 1988 44): 77000 ng/mL
- AUC Obs ([2]; 500 mg weekly (20 weeks), 3360-3528 h, ref Schwartz et al., 1987 32): 12465 µg·h/mL
- Cmax Obs ([2]; 500 mg weekly (20 weeks), ref Schwartz et al., 1987 32): 121000 ng/mL
- AUC Obs ([2]; 1500 mg SD, 0-inf, ref Karunajeewa et al., 2009 43): 33284 µg·h/mL
- Cmax Obs ([2]; 1500 mg SD, ref Karunajeewa et al., 2009 43): 142000 ng/mL
- Caco-2 (Papp A-B) ([8]; calibrated against propranolol, plasma as medium for atovaquone and piperaquine, ref Charman et al., 2020 1): 15 10-6 cm/s
- Risk as a perpetrator [3]: None identified
- Risk as a victim [3]: Renally cleared
- Log D pH 7.4 [4]: -0.78
- fu ([5]; ref Charman et al., 2020 1): 0.036
